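Step 1: Grow cells in 96-well plates. Step 2: Expose to compound for 48 hours at 5 concentrations. Step 3: Interpolate endpoints linearly; if unreached, use highest concentration. Here, GI50 denotes the concentration required for 50% inhibition of growth.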 Activity calls are given as the source filed them. Rule as the data show it: active = GI50 up to about 1.1 µM and inactive = higher.
Columns and labels:
Experiment in all cases: growth of human tumour cells (NCI), 48 h
[1] = tested on: DMS-273
[2] = tested on: SK-MEL-2
[3] = tested on: CAKI-1
[4] = tested on: TK-10
[5] = tested on: ACHN
[6] = tested on: K562
[7] = tested on: DMS-114
[8] = tested on: NCI-H522
[9] = tested on: HOP-18
[10] = tested on: HCT-116
[11] = tested on: IGROV-1
[12] = tested on: OVCAR-3
[13] = tested on: UACC-257
[14] = tested on: CCRF-CEM
[15] = tested on: SW-620
[16] = tested on: M14
[17] = tested on: OVCAR-4
[18] = tested on: HT-29
[19] = tested on: NCI-H460
[20] = tested on: SF-295
[21] = tested on: DLD-1
[22] = tested on: SK-OV-3
[23] = tested on: SF-539
[24] = tested on: A549
[25] = tested on: OVCAR-5
[26] = tested on: RXF 393
[27] = tested on: SK-MEL-28
[28] = tested on: HCT-15
[29] = tested on: SNB-78
[30] = tested on: RPMI-8226
[31] = tested on: UACC-62
[32] = tested on: SNB-19
[33] = tested on: COLO 205
[34] = tested on: UO-31
[35] = tested on: LXFL 529
[36] = tested on: KM-20L2
[37] = tested on: NCI-H226
[38] = tested on: EKVX
[39] = tested on: NCI-H23
[40] = tested on: XF498
[41] = tested on: M19-MEL
[42] = tested on: SNB-75
[43] = tested on: A498
[44] = tested on: SR
[45] = tested on: U-251
[46] = tested on: HL-60
[47] = tested on: MOLT-4
[48] = tested on: SK-MEL-5
[49] = tested on: LOX IMVI
[50] = tested on: KM12
[51] = tested on: HOP-62
[52] = tested on: RXF 631
[53] = tested on: HOP-92
[54] = tested on: Malme-3M
[55] = tested on: 786-0
[56] = tested on: SN12C
[57] = tested on: SF-268
[58] = tested on: OVCAR-8

Structure (SMILES): CCOc1ccc(OP2(=O)NC(=O)C=C(C)N2)cc1 (stereo not drawn)
- GI50 [1]: > 100 µM (inactive)
- GI50 [2]: > 100 µM (inactive)
- GI50 [3]: > 100 µM (inactive)
- GI50 [4]: > 100 µM (inactive)
- GI50 [5]: 90.8 µM (inactive)
- GI50 [6]: > 100 µM (inactive)
- GI50 [7]: > 100 µM (inactive)
- GI50 [8]: > 100 µM (inactive)
- GI50 [9]: > 100 µM (inactive)
- GI50 [10]: > 100 µM (inactive)
- GI50 [11]: > 100 µM (inactive)
- GI50 [12]: > 100 µM (inactive)
- GI50 [13]: > 100 µM (inactive)
- GI50 [14]: 44.2 µM (inactive)
- GI50 [15]: > 100 µM (inactive)
- GI50 [16]: > 100 µM (inactive)
- GI50 [17]: > 100 µM (inactive)
- GI50 [18]: > 100 µM (inactive)
- GI50 [19]: > 100 µM (inactive)
- GI50 [20]: > 100 µM (inactive)
- GI50 [21]: > 100 µM (inactive)
- GI50 [22]: > 100 µM (inactive)
- GI50 [23]: > 100 µM (inactive)
- GI50 [24]: > 100 µM (inactive)
- GI50 [25]: > 100 µM (inactive)
- GI50 [26]: > 100 µM (inactive)
- GI50 [27]: > 100 µM (inactive)
- GI50 [28]: > 100 µM
- GI50 [29]: > 100 µM (inactive)
- GI50 [30]: > 100 µM (inactive)
- GI50 [31]: > 100 µM (inactive)
- GI50 [32]: > 100 µM (inactive)
- GI50 [33]: > 100 µM (inactive)
- GI50 [34]: > 100 µM (inactive)
- GI50 [35]: > 100 µM (inactive)
- GI50 [36]: > 100 µM (inactive)
- GI50 [37]: > 100 µM (inactive)
- GI50 [38]: > 100 µM (inactive)
- GI50 [39]: > 100 µM (inactive)
- GI50 [40]: > 100 µM (inactive)
- GI50 [41]: > 100 µM (inactive)
- GI50 [42]: > 100 µM (inactive)
- GI50 [43]: > 100 µM (inactive)
- GI50 [44]: 48.4 µM (inactive)
- GI50 [45]: > 100 µM (inactive)
- GI50 [46]: 37.8 µM (inactive)
- GI50 [47]: > 100 µM (inactive)
- GI50 [48]: > 100 µM (inactive)
- GI50 [49]: > 100 µM (inactive)
- GI50 [50]: > 100 µM (inactive)
- GI50 [51]: > 100 µM (inactive)
- GI50 [52]: > 100 µM (inactive)
- GI50 [53]: > 100 µM (inactive)
- GI50 [54]: > 100 µM (inactive)
- GI50 [55]: 92.9 µM (inactive)
- GI50 [56]: > 100 µM (inactive)
- GI50 [57]: > 100 µM (inactive)
- GI50 [58]: > 100 µM (inactive)
